# Source: patent US20160090351A1, “INHIBITORS OF DEUBIQUITINATING PROTEASES” (BRANDEIS UNIVERSITY, priority 2013, published 2016)
# Molecular target: cathepsin C (Homo sapiens, UniProt P53634)
# Test: cathepsin C inhibition
# Type: biochemical
# Details: compounds numbered as in FIG. 5
# Chain of cathepsin C (P53634 25-463, species assumed): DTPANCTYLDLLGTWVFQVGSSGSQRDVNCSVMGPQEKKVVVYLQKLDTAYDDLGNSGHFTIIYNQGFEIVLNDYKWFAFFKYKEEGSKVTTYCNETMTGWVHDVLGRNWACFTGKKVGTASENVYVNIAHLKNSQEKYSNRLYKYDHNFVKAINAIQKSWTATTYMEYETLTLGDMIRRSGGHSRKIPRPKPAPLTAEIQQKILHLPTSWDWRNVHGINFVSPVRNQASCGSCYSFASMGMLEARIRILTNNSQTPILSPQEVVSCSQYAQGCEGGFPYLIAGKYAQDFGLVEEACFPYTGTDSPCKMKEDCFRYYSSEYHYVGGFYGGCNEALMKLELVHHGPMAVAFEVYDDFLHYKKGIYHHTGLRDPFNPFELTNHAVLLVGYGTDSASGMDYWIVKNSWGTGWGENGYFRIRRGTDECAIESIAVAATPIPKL
compound,measurement,value
NCc1ccc(OC(=O)Oc2ccc(Cl)cc2)cc1 [compound 3],inhibition of cathepsin C,does not
